According to patent publication US6046238A, “Method for treating or preventing the spread of acne vulgaris” (TriStrata, Inc., priority 1999, dated 2000):
“Also recorded” adds a separate entry of the source.

Key:
[1] = prophylactic effect in preventing the development of axillary foul odor; format: in vivo, human; conditions: Example 5; 0.5% solution, topical; one person; up to 24 hours
Experimental: A typical test for prophylactic effect in preventing the development of axillary foul odor was carried out as follows. A test composition was prepared by dissolving 0.5 g of phenyl 2-acetoxyethanoic acid or diphenyl 2-acetoxyethanoic acid in 70 ml of ethanol and 30 ml of propylene glycol. The control vehicle was prepared by mixing 70 ml of ethanol and 30 ml of propylene glycol. A human subject was instructed to take a shower in the morning using ordinary soap to clean the body surfaces. After the skin was dried, the test composition was topically applied to the left underarm area only. The vehicle control was topically applied to the right underarm area. Both underarm areas were monitored by the subject and at least one other person approximately every 8 hours to determine whether the test composition had any prophylactic effect in preventing the development of underarm foul odor in the left axilla as compared to the vehicle alone on the right control armpit.
Presence or substantial absence of foul odor, detected by smell, was adopted as the criteria for ineffectiveness or effectiveness of the test composition.
A total of seven subjects (four females; three males) participated in several studies. Most of these subjects could not use existing commercial products of antiperspirants or deodorants because of severe irritation after topical application. […]

[2] = axillary antiodor effectiveness (treatment); format: in vivo, human; conditions: 0.5%
Description: In another study the subjects were instructed not to take a shower in the morning. After the foul odor developed in both axillae, the subjects were instructed to apply the test composition containing 0.5% phenyl 2-acetoxyethanoic acid or diphenyl 2-acetoxyethanoic acid on the left underarm area and the control vehicle on the right underarm area. Topical applications were made once daily for several days.
Usually the left underarm ceased emanating any detectable foul odor after 1 day of topical use. The subjects were instructed at this time to apply the test composition containing 0.5% phenyl 2-acetoxyethanoic acid or diphenyl 2-acetoxyethanoic acid on the right underarm area also. Topical applications were made once daily for several days. The right axilla ceased to emanate any detectable foul odor after 1 to 2 days of topical use.

[3] = topical treatment of nail infections; format: in vivo, human; conditions: non-synergistic composition, twice daily
Description: The participating subjects in the present study were instructed to apply twice daily the composition containing phenyl 2-acetoxyethanoic acid or diphenyl 2-acetoxyethanoic acid with or without clotrimazole as an additional antimicrobial agent.
In order to determine the antimicrobial effect of an aryl 2-acetoxyethanoicacid, a standard test method of Minimum Inhibitory Concentration (MIC) against the growth of 10 bacteria was used. To determine a prophylactic effect against the development of, as well as a topical effect in the treatment of, body foul door, eleven human subjects participated in this study. […] Scientific and test results are overviewed as follows.

[4] = treatment of oral infections; format: in vivo, human; conditions: 2% composition diluted to 0.1%; oral rinse twice daily
Experimental: Compositions for treatment of oral infections may contain an aryl 2-acetoxyethanoic acid as the only active ingredient. In this case a phenyl 2-acetoxyethanoic acid or diphenyl 2-acetoxyethanoic acid 2% composition was formulated by dissolving the active ingredient 2 g in ethanol 78 ml and propylene glycol 20 ml. Before use, this composition was diluted to 0.1% with water by mixing one part of the composition with 19 parts of water. The treatment involves oral rinse, wash and gargle by keeping the diluted composition inside the oral cavity for a few minutes, and then spit out. Such procedure may be repeated twice daily for several days until the infection is eradicated usually within 5-7 days.

[5] = topical treatment of folliculitis and perifolliculitis; format: in vivo, human; conditions: 0.9%, twice daily; nine patients
Experimental: Nine patients having various degrees of folliculitis and perifolliculitis participated in this study. A test composition containing 0.9% phenyl 2-acetoxyethanoic acid or diphenyl 2-acetoxyethanoic acid was prepared by dissolving 0.9 g compound in 79.1 ml 2-propanol, 15 ml butane-1,3-diol and 5 ml nonoxynol-6. The composition was packaged in one-ounce bottles. The patients were instructed to apply the test composition twice daily on the infected skin lesions and involved areas. Topical applications were continued up to 8 weeks.

[6] = reversal of corticosteroid unresponsiveness in psoriasis; format: in vivo, human; conditions: added once daily to corticosteroid twice daily; seven patients
Experimental: To determine the therapeutic responsive effect of an aryl 2-acetoxyethanoicacid against psoriasis seven patient participated in this study. A test composition was prepared by dissolving 1 g phenyl 2-acetoxyethanoic acid or diphenyl 2-acetoxyethanoic acid in 2 ml ethanol. The solution thus obtained was mixed with 60 g petrolatum and 37 g mineral oil. The anhydrous ointment thus formulated was packaged in one-ounce jars.
When the drug unresponsiveness to a corticosteroid occurred, the participating patients were instructed to apply in addition the test composition once daily to the lesions on the left side of the body only. Topical applications of the corticosteroid were continued twice daily to both sides of the body. […] While psoriatic lesions on the right side of the body remained unresponsive to the topical corticosteroid, the lesions on the left side started to clear after 3 to 4 weeks of additional topical application with the composition containing an aryl 2-acetoxyethanoic acid.
At this time the patients were instructed to shift the additional topical application to the lesions on the right side instead of the left side of the body. The psoriatic lesions on the right side of the body began to clear after 3 to 4 weeks of additional topical application with the composition containing aryl 2-acetoxyethanoic acid.

[7] = caused by microbial infections including P. acnes; salicylic acid alone; cited from earlier work

SMILES | prevention of axillary foul odor (left underarm) [1] | overall axillary antiodor effectiveness ([2]; topical) | left axilla on continued use ([2]; continued, once daily for several days) | time after which left underarm usually ceased emanating any detectable foul odor ([2]; no-shower study, left side) [days] | intensity of foul odor, left underarm ([2]; no-shower study, once daily) | time after which left underarm ceased emanating any detectable foul odor ([2]; Example 6, once daily, one person, left side) [days] | time after which right axilla ceased to emanate any detectable foul odor ([2]; Example 6, right side, formerly vehicle) [days] | disappearance of nail infections [3] | time within which oral infection is usually eradicated [4] [days] | deeper lesions of papules [5] | superficial folliculitis and perifolliculitis lesions [5] | onset of improvement of psoriatic lesions, left side [6] | effect against acne lesions associated with whiteheads [7]
CC(=O)OC(C(=O)O)(c1ccccc1)c1ccccc1 [diphenyl 2-acetoxyethanoic acid] | did not produce any detectable odor, even after 24 hours; also recorded: substantially effective in preventing the development of axillary foul odor | topically effective in eradicating the axillary foul odor | continued to maintain the condition free of any offensive foul odor | 1 | diminished in intensity of foul odor after one to two days of topical application | 1 | 1 | usually disappeared within one to several months | 5 to 7 | eradicated or substantially improved after 4 to 8 weeks of topical applications | eradicated or substantially improved after a few days of topical applications | began to improve after one week | –
O=C(O)c1ccccc1O [salicylic acid] | – | – | – | – | – | – | – | – | – | – | – | – | not therapeutically effective against acne lesions associated with whiteheads
